According to paper PMC9851200, “Multiparameter phenotypic screening for endogenous TFEB and TFE3 translocation identifies novel chemical series modulating lysosome function” (Autophagy, 2022):

Columns and labels:
Assay type in all cases: binding
[1] = target: kinases (KINOMEscan panel) (Homo sapiens, UniProt Q13233); settings: MAP3K1; NEW KINOMEscan
[2] = target: T1, kinases (KINOMEscan panel) (Homo sapiens, UniProt Q8WTQ7); settings: kinase GRK7; NEW KINOMEscan
T1 sequence (Q8WTQ7 1-553): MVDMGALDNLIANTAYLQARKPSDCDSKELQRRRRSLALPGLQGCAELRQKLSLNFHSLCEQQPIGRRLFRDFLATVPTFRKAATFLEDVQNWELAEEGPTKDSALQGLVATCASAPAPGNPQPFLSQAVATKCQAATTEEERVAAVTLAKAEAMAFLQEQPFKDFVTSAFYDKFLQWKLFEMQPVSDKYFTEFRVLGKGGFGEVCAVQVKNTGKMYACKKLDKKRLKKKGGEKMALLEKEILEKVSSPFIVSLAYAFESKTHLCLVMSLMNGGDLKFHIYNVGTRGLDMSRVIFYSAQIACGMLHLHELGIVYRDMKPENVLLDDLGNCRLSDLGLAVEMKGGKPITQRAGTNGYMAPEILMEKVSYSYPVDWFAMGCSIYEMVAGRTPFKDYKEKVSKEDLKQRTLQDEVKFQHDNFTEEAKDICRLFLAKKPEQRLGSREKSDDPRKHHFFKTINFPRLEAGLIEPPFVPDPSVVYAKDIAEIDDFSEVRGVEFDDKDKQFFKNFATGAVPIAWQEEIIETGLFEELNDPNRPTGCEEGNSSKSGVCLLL

[3] = target: T2, kinases (KINOMEscan panel) (Homo sapiens, UniProt P36888); settings: NEW KINOMEscan; for KINOMEscan FLT3-autoinhibited: kinase FLT3-autoinhibited
T2 sequence (P36888 27-993): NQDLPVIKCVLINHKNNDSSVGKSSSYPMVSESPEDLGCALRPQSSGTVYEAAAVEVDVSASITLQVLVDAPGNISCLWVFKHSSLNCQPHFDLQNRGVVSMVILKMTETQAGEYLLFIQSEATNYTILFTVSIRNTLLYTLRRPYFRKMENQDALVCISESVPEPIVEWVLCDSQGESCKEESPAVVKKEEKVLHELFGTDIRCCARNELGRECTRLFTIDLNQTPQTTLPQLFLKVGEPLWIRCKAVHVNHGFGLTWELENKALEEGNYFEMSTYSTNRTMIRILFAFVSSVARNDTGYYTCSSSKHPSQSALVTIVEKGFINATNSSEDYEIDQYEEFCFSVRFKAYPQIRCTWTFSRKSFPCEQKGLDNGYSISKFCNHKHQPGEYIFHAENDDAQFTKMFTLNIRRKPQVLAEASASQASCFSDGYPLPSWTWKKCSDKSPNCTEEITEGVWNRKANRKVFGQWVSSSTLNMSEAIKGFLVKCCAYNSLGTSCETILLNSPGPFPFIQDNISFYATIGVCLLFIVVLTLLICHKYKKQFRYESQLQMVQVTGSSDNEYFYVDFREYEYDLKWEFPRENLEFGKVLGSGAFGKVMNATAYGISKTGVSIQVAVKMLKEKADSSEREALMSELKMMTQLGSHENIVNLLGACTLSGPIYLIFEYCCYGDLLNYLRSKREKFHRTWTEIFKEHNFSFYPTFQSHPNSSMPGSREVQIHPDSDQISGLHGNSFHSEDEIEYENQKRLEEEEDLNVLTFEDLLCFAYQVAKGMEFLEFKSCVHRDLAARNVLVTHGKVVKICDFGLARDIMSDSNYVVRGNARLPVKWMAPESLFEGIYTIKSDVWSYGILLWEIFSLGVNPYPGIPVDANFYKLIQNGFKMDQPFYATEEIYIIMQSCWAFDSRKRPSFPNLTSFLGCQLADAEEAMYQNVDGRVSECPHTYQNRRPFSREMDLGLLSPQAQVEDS

[4] = target: T3, kinases (KINOMEscan panel) (Homo sapiens, UniProt Q59H18); settings: kinase TNNI3K; NEW KINOMEscan
T3 sequence (Q59H18 1-835): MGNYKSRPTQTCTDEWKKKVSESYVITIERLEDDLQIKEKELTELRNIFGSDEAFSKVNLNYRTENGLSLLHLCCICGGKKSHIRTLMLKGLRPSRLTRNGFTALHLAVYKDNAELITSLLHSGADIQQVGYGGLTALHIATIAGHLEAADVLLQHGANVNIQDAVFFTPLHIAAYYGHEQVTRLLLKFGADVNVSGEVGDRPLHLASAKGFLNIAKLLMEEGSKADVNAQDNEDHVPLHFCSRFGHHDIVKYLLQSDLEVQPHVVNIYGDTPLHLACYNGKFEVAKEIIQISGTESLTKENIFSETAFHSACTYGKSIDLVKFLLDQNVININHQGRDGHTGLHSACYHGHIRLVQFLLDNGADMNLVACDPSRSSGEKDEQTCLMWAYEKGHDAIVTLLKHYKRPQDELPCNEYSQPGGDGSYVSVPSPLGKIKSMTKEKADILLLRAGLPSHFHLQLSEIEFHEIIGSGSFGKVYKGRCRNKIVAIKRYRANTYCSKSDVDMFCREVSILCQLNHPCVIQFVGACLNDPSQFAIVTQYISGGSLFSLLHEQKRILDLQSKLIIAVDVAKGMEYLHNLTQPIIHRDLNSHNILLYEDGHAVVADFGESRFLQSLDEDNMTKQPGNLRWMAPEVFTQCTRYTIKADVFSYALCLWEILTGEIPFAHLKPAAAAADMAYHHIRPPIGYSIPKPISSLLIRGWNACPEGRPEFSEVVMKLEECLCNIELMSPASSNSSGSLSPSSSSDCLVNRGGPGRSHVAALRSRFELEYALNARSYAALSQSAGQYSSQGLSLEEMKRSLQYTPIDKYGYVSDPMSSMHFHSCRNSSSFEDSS

Sequence of kinases (KINOMEscan panel) (Homo sapiens, UniProt Q13233) (Q13233 whole entry): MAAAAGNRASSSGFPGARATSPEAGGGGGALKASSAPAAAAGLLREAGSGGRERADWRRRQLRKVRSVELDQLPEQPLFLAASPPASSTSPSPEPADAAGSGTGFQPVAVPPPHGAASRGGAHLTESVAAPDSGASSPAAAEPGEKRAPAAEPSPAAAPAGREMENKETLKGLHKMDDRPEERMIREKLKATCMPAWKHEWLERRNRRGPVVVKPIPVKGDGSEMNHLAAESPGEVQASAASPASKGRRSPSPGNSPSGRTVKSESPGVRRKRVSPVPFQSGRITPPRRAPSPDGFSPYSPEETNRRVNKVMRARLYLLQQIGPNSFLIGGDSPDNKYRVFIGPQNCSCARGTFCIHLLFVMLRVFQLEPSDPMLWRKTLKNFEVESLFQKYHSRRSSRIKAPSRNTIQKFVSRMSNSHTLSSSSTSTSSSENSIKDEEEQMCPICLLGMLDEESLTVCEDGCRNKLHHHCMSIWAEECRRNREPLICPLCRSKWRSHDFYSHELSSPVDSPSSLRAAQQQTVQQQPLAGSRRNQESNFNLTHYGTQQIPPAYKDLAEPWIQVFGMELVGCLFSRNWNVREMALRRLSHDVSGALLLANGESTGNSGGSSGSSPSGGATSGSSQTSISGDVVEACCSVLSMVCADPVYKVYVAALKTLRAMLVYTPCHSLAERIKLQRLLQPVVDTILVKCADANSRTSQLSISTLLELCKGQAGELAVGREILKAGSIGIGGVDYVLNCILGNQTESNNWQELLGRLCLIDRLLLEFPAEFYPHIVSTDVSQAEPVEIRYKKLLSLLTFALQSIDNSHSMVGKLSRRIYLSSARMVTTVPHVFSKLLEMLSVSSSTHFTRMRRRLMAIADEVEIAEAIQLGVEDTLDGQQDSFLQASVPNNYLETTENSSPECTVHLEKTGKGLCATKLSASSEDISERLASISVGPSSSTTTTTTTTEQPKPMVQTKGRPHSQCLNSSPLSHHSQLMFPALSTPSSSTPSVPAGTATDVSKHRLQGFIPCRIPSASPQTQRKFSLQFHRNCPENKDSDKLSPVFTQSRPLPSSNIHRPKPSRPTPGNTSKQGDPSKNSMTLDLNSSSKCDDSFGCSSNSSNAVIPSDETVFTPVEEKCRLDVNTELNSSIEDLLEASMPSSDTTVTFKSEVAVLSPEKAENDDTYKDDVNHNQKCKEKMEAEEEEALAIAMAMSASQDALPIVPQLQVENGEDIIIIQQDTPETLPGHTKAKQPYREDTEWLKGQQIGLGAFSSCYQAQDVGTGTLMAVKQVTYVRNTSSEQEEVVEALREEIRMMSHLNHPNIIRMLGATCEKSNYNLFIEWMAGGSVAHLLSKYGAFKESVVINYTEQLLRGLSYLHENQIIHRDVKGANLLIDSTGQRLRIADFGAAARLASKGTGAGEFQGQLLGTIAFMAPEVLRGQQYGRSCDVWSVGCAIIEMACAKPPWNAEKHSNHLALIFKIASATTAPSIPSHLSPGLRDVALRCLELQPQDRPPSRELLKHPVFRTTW

What does the source list for Cc1cccc(-c2nc(Nc3ccc4nn(C)cc4c3)c3ccccc3n2)n1 [NK167]?
KINOMEscan MAP3K1 [1]: 0; KINOMEscan GRK7 [2]: 0; KINOMEscan FLT3 [3]: 0; KINOMEscan FLT3-autoinhibited [3]: 0; KINOMEscan TNNI3K [4]: 6

How did the “KINOMEscan MAP3K1” value [1] turn out when Cc1cccc(-c2nc(N(C)c3ccc4ncsc4c3)c3ccccc3n2)n1 [NK-161] was run?
Its value is 0.

What about the “KINOMEscan GRK7” value [2] of the same molecule?
Its value is 5.

What about the “KINOMEscan FLT3” value [3] of the same molecule?
The value was 0.

And the “KINOMEscan FLT3-autoinhibited” value [3]?
Its value is 0.

What about the “KINOMEscan TNNI3K” value [4] of the same molecule?
The value was 9.
